Data: PMC12610274, “Identification of Marrubiin as a Cathepsin C Inhibitor for Treating Rheumatoid Arthritis” (Molecules, 2025)
Each block holds one compound with its values, some of them ahead of it.

Experiments:
[1] = Cytotoxicity assay, U937 cell line; assay type: cell-based; settings: human, U937 cells
Procedure: (§1) RAW264.7 cells and U937 cells in the logarithmic growth phase were counted and diluted, and the concentrations of the single-cell suspensions of the two types of cells were adjusted to 5 × 10^4 cells/mL and 3 × 10^4 cells/mL, respectively. After thorough mixing, the cells were seeded into a 96-well plate, with 100 μL of cell suspension added to each well. Prepare the working solution of test compounds using the corresponding medium as the solvent, with the concentration of working solution being 2 times the final test concentration (2.5 μM, 5 μM, 10 μM, 20 μM, and 40 μM). Twenty-four hours after cell seeding, the compound working solutions were added to the compound test wells, and the same volume of medium was added to the negative control wells, followed by continuous incubation for another 24 h. Only the wells with the same volume but without cells served as the blank control group. The CellTiter-Lumi™ luminescent cell viability assay kit (Beyotime Biotechnology, Shanghai, China, C0065XL) was used to detect cell viability according to the standard operating procedures. Each group of tests was independently repeated at least 3 times, and IC50 values were calculated using SPSS 10.0.

CTSC [2] = target: T1, CTSC (Homo sapiens, UniProt P53634); test: Human recombinant CTSC isolated enzyme assay; assay type: biochemical; set-up: purchased R&D Systems; settings: for IC50: human recombinant CTSC, cell-free, 12-point dose-response, read-out: CTSC Enz (IC50: nM)
Procedure: Both recombinant CTSL and CTSC for in vitro cell-free-based enzymatic activity assay can be purchased from R&D Systems (Minneapolis, MN, USA), a biotechnology company. According to the standardized procedures and material ratios provided by R&D Systems, prepare the activation solution (25 mM MES + 5 mM DTT, pH 6.0) and the assay solution (25 mM MES + 50 mM NaCl + 5 mM DTT, pH 6.0) in advance for later use. Dilute the detection substrate H-Gly-Arg-AMC to a 200 µM solution with the assay solution for standby. Prepare the working solution of compounds to be tested using the assay solution, with the concentration of working solution being 10 times the final test concentration. Dilute CTSC and CTSL, respectively, with cold activation solution. Thoroughly mix the two activation solutions containing the proteins to achieve final concentrations of 300 nM for CTSL and 440 nM for CTSC. After co-incubation for 1 h, the activated CTSC treated with CTSL can be used for the enzymatic activity inhibition efficacy test of compounds. Dilute the activated CTSC to 4.4 nM with cold assay buffer. Incubate 4 μL of the activated CTSC with 1 μL of the compound working solution (test group) or 1 μL of blank assay solution (control group) at room temperature for 3 h. Then, add 5 μL of the detection substrate to achieve a final concentration of 100 μM. Mix 5 µL each of the assay solution and the substrate solution as the blank group. After 1 h, the absorbance of detection substrate was measured using a multifunctional microplate reader at excitation/emission wavelengths of 380 nm/460 nm. The inhibitory efficacy of molecules on enzyme activity was calculated based on the absorbance difference between test group and control group. […] Each group of tests mentioned above was independently repeated at least 3 times, and IC50 values were calculated using SPSS 10.0.
Target sequence in this assay (P53634 25-134 limits assumed): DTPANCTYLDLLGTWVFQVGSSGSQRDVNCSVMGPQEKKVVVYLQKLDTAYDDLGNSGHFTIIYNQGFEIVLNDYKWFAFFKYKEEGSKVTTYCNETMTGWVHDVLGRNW
Target sequence in this assay (P53634 231-394 limits assumed): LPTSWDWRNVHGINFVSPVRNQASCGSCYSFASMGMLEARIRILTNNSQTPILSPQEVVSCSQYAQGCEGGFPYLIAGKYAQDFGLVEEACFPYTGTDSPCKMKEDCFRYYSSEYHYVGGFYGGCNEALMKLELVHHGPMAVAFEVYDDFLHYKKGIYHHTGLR
Target sequence in this assay (P53634 395-463 limits assumed): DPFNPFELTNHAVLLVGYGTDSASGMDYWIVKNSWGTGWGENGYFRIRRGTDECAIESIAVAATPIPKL

[3] = Cytotoxicity assay, RAW264.7 cell line; assay type: cell-based; settings: mouse, RAW264.7 cells
Procedure: as §1

intracellular CTSC = target: T2, intracellular CTSC (Homo sapiens, UniProt P53634); test: CTSC cell-based assay using the U937 cell line; settings: read-out: Cell-Based Enz (IC50: nM)
T2 construct: endogenous in cells; host or cells: U937
T2 sequence (P53634 25-463): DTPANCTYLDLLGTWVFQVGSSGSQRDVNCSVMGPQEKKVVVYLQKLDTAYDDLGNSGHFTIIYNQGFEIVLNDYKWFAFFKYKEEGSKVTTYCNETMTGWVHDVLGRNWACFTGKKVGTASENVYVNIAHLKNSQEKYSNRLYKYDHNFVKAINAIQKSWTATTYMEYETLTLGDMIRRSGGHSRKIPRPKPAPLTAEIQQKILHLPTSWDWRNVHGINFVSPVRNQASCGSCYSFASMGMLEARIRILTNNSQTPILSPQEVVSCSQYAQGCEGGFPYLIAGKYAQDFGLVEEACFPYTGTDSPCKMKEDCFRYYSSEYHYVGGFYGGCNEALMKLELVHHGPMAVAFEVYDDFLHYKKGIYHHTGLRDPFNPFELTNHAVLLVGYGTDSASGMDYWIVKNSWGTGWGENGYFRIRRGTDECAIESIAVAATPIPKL
Procedure: Cell-based CTSC enzymatic activity assays were performed in 96-well clear-bottom black microplates. […] The detection substrate, H-Gly-Arg-AFC, was diluted to 100 µM in serum-free medium and stored for later use. U937 cells in the logarithmic growth phase were harvested, washed with PBS, and counted. A single-cell suspension was prepared at a density of 1.0 × 10^6 cells/mL using serum-free medium. 30 µL of cell suspension was seeded into each well of the 96-well plate. To the test wells, 10 µL of the compound working solution was added, while 10 µL of serum-free medium was added to the control wells. The plate was pre-incubated in a cell culture incubator at 37 °C for 3 h. Subsequently, 10 µL of H-Gly-Arg-AFC was added to initiate the enzymatic reaction, and the plate was further incubated at 37 °C for 1 h. Fluorescence measurements were performed using a multimode microplate reader at excitation/emission wavelengths of 400/505 nm. Each group of tests was independently repeated at least 3 times, and IC50 values were calculated using SPSS 10.0.

PR3 [4] = test: NSPs activity in U937 cells after 5 days of treatment, PR3; assay type: cell-based, human; settings: U937, 10 μM
Procedure: (§2) U937 cells in the logarithmic growth phase were collected and equally divided into six portions. Four of these portions were treated with DMSO solutions of the test compound at varying concentrations to achieve final concentrations of 1.25, 2.5, 5, and 10 μM, respectively. An equal volume of DMSO was added to one portion as a blank control, while another portion treated with a DMSO solution of AZD7986 served as a positive control. The cells were cultured under standard U937 conditions for 5 consecutive days, with daily medium changes and fresh compound treatments administered using the same protocol. Following 5 days of treatment, cells were harvested, washed twice thoroughly with phosphate-buffered saline, and lysed in phosphate-buffered saline containing 1% Triton X-100. The lysates were centrifuged to collect the supernatant, and protein concentrations were determined as previously described to ensure equal total protein loading across all samples. The prepared samples were stored at −20 °C until further analysis. Different assay buffers were prepared for diluting samples and measuring the activities of specific NSPs: a buffer containing 50 mM Tris and 750 mM NaCl (pH 7.4) was used for NE and PR3; a buffer containing 50 mM Tris, 750 mM NaCl, 5 mM EDTA (pH 7.4) was used for Cat G; and a buffer containing 25 mM MES, 50 mM NaCl, 5 mM DTT (pH 6.0) was used for CTSC. […]

PR3 [5] = test: AIA model, serum PR3 activity; assay type: in vivo, Sprague-Dawley rats; settings: rat AIA, 30 mg/kg gavage, 15 days
Procedure: (§3) Thirty 4-week-old male Sprague-Dawley rats (weighing 120–130 g) were randomly divided into 6 groups (5 rats per group) after 1 week of adaptive feeding, namely the normal group, model group, low-dose experimental group (15 mg/kg), medium-dose experimental group (30 mg/kg), high-dose experimental group (60 mg/kg), and positive control group (30 mg/kg). Starting from Day 0 of the experiment, rats in the administration groups and model group were injected intradermally with 0.1 mL of CFA into the left hind paw to induce AIA, while rats in the normal group were injected intradermally with an equal volume (0.1 mL) of normal saline as a control. After 13 consecutive days of feeding, rats treated with CFA successfully developed typical AIA symptoms. […] During the experiment, the body weight, mental state, activity ability, hair color changes, and paw appearance changes of the rats were observed and recorded daily. In addition, on Day 0 of the experiment (baseline period), the basic paw volume of all rats was accurately measured using a plethysmometer, which served as a reference standard for subsequent evaluation of inflammation severity. From Day 13 to Day 28 of the experiment, the paw volume of the rats was measured repeatedly every 3 days. The degree of paw swelling was quantified by calculating the change in paw volume relative to the baseline. […] The cytokine levels in serum were measured. […]

Cat G [6] = test: AIA model, serum Cat G activity; assay type: in vivo, Sprague-Dawley rats; settings: rat AIA, 30 mg/kg gavage, 15 days
Procedure: as §3

Cat G [7] = test: Cat G activity in blood and bone marrow of mice; assay type: in vivo, C57BL/6 mice; settings: 30 mg/kg daily gavage, 7 days
Procedure: (§4) A total of 25 C57BL/6 mice (6–8 weeks old, weighing approximately 20 g, with equal numbers of males and females) were randomly divided into five groups. Mice in the compound-treated groups were orally administered the compound once daily at doses of 0.3, 3, and 30 mg/kg for 7 consecutive days. […] Mice in the normal group were given an equal volume of normal saline at the same time points. The body weight, death rate, and behavior were observed and recorded daily for one week. After 7 days, bone marrow and blood samples were collected from the mice and lysed using 8% Triton X-100 buffer. The lysates were stored at −20 °C until testing. The activity assays for CTSC and NSPs were performed as described above. The mice were anesthetized and the tissues were taken for H&E staining.

CTSC [8] = target: T1, CTSC; test: CTSC activity in U937 cells after 5 days of treatment; assay type: cell-based; set-up: endogenous in cells; host or cells: U937; settings: U937, 5 days, marrubiin and AZD7986 at the same concentration
Procedure: as §2
Target sequence in this assay (P53634 25-463): as above

PR3 [9] = test: PR3 activity in blood and bone marrow of mice; assay type: in vivo, C57BL/6 mice; settings: 30 mg/kg daily gavage, 7 days
Procedure: as §4

CTSC [10] = target: T3, CTSC (Mus musculus, UniProt P97821); test: CTSC activity in blood and bone marrow of mice; assay type: in vivo, C57BL/6 mice; settings: 30 mg/kg daily gavage, 7 days
T3 construct: from tissue; host or cells: mouse blood and bone marrow lysates
T3 sequence (P97821 25-462): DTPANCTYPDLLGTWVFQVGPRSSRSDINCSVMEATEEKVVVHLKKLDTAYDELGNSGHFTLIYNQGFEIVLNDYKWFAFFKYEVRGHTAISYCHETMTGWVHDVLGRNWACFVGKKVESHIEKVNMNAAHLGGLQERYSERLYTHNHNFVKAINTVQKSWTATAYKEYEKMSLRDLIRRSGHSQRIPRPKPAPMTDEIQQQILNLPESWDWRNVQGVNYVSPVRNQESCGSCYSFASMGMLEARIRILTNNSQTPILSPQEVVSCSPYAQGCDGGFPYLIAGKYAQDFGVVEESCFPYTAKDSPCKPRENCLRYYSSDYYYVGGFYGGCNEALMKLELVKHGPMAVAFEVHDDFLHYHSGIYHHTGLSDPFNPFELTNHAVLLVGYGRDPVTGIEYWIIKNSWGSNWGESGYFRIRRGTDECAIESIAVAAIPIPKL
Procedure: as §4

Cat G [11] = test: NSPs activity in U937 cells after 5 days of treatment, Cat G; assay type: cell-based, human; settings: U937, 10 μM
Procedure: as §2

NE [12] = test: AIA model, serum NE activity; assay type: in vivo, Sprague-Dawley rats; settings: rat AIA, 30 mg/kg gavage, 15 days
Procedure: as §3

NE [13] = test: NE activity in blood and bone marrow of mice; assay type: in vivo, C57BL/6 mice; settings: 30 mg/kg daily gavage, 7 days
Procedure: as §4

AIA model = test: Adjuvant-induced arthritis (AIA) model, disease severity; assay type: in vivo, Sprague-Dawley rats; settings: rat AIA
Procedure: Thirty 4-week-old male Sprague-Dawley rats (weighing 120–130 g) were randomly divided into 6 groups (5 rats per group) after 1 week of adaptive feeding, namely the normal group, model group, low-dose experimental group (15 mg/kg), medium-dose experimental group (30 mg/kg), high-dose experimental group (60 mg/kg), and positive control group (30 mg/kg). Starting from Day 0 of the experiment, rats in the administration groups and model group were injected intradermally with 0.1 mL of CFA into the left hind paw to induce AIA, while rats in the normal group were injected intradermally with an equal volume (0.1 mL) of normal saline as a control. After 13 consecutive days of feeding, rats treated with CFA successfully developed typical AIA symptoms. […] During the experiment, the body weight, mental state, activity ability, hair color changes, and paw appearance changes of the rats were observed and recorded daily. In addition, on Day 0 of the experiment (baseline period), the basic paw volume of all rats was accurately measured using a plethysmometer, which served as a reference standard for subsequent evaluation of inflammation severity. From Day 13 to Day 28 of the experiment, the paw volume of the rats was measured repeatedly every 3 days. The degree of paw swelling was quantified by calculating the change in paw volume relative to the baseline. Meanwhile, the arthritis index score was calculated based on the range of paw redness and swelling, the severity of swelling, and the degree of limb movement limitation, so as to comprehensively evaluate the inflammatory state. On Day 28 of the experiment (the end of the administration cycle), blood samples were collected via abdominal aortic puncture. The blood samples were centrifuged at 3000 rpm for 20 min, and the upper serum was collected and stored at −20 °C for subsequent detection. The rats were then sacrificed, and their ankle joint tissues were harvested for subsequent pathological section observation and analysis. The cytokine levels in serum were measured. The activity detection of CTSC and NSPs was carried out according to the above methods.

NE [14] = test: NSPs activity in U937 cells after 5 days of treatment, NE; assay type: cell-based, human; settings: U937, 10 μM
Procedure: as §2

CTSC [15] = target: T4, CTSC (Rattus norvegicus, UniProt P80067); test: AIA model, serum CTSC activity; assay type: in vivo, Sprague-Dawley rats; settings: 30 mg/kg gavage, 15 days
T4 construct: from tissue; host or cells: serum of Sprague-Dawley rats (AIA model)
T4 sequence (P80067 25-462): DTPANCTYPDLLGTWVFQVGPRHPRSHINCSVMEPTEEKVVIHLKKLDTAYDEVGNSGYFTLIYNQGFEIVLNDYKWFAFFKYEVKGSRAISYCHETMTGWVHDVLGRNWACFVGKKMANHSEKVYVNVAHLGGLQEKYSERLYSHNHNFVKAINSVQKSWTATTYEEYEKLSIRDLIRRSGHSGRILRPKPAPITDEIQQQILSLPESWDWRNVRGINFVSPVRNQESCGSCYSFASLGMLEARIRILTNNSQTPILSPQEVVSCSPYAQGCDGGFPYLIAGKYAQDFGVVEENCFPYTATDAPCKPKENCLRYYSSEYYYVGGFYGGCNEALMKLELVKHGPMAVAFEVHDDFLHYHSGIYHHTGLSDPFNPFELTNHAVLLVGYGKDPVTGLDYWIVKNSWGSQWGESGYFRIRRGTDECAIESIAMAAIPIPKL
Procedure: as §3

Compound: CN1C2CC(O)CC1C1OC12 (stereo not drawn) [Scopine, scopine]
IC50 at 24 h [1]: > 10 µM
IC50 (CTSC [2]): 135 ± 4.7 nM
IC50 at 24 h [3]: > 10 µM
IC50 (intracellular CTSC): 337 ± 1.8 nM

Compound: Cn1c(=O)oc2ccc(-c3ccc(C[C@@H](C#N)NC(=O)[C@@H]4CNCCCO4)cc3)cc21 [AZD7986, reference compound]
PR3 activity, % of DMSO group (PR3 [4]): 8.1%
serum PR3 activity, % of control group (PR3 [5]): ~40%
serum Cat G activity, % of control group (Cat G [6]): approximately 58%
remaining activity rate of Cat G (Cat G [7]; blood): ~35.2%
remaining activity rate of Cat G (Cat G [7]; bone marrow): ~30.5%
IC50 at 24 h [1]: > 10 µM
residual CTSC activity (CTSC [8]): less than 8%
remaining activity rate of PR3 (PR3 [9]; blood): ~10.3%
remaining activity rate of PR3 (PR3 [9]; bone marrow): ~15.8%
remaining activity rate of CTSC (CTSC [10]; blood): ~18.3%
remaining activity rate of CTSC (CTSC [10]; bone marrow): approximately 10.6%
Cat G activity, % of DMSO group (Cat G [11]): 12.7%
IC50 at 24 h [3]: > 10 µM
serum NE activity, % of control group (NE [12]): ~30%
remaining activity rate of NE (NE [13]; blood): ~8.1%
remaining activity rate of NE (NE [13]; bone marrow): ~11.7%
histopathology of ankle joints (H&E, Safranin O/Fast Green) (AIA model; 30 mg/kg): reduced the histopathological statement
clinical score vs AIA model group (AIA model; 30 mg/kg gavage, from day 16 onwards): significantly lower than those of AIA model group
volume and thickness of inflamed paws (AIA model; 30 mg/kg, days 16 to 28): continuous reduction in volume and a gradual decrease in thickness
body weight recovery (AIA model; 30 mg/kg, from day 16 onwards): most significant weight recovery effects
NE activity, % of DMSO group (NE [14]): 5.1%
serum CTSC activity, % of control group (CTSC [15]): approximately 35%

Compound: CC(=O)OCC1=CO[C@@H](OC(=O)CC(C)C)[C@H]2C1=C[C@H](OC(=O)CC(C)(C)OC(C)=O)[C@]21CO1 [Acevaltrate, acevaltrate]
IC50 at 24 h [1]: > 10 µM
IC50 (CTSC [2]): 1053 ± 2.2 nM
IC50 at 24 h [3]: > 10 µM
IC50 (intracellular CTSC): 702.1 ± 3.2 nM

Further lines, with some results ahead:

enzymatic inhibitory activity against CTSC (CTSC [2]; result in words): no enzymatic inhibitory activity at all
Compound: N[C@@H]1CON=C1O [D-cycloserine]

IC50 (CTSC [2]): 125 ± 2.9 nM
IC50 (intracellular CTSC): > 5000 nM
Compound: CC1(C)CC[C@]2(C(=O)O)[C@H](O)C[C@]3(C)C(=CC[C@@H]4[C@@]5(C)CC[C@H](O)[C@@](C)(C=O)[C@@H]5CC[C@]43C)[C@@H]2C1 [Quillaic acid, quillaic acid]
IC50 at 24 h [1]: > 10 µM
IC50 at 24 h [3]: > 10 µM

IC50 (CTSC [2]): 1101 ± 2 nM
IC50 (intracellular CTSC): > 5000 nM
Compound: N[C@H]1CONC1=O [L-Cycloserine, L-cycloserine]
IC50 at 24 h [1]: > 10 µM
IC50 at 24 h [3]: > 10 µM
